{"source": "patent US7291601B1", "about": "“Arginine-rich anti-vascular endothelial growth factor peptides that inhibit growth and metastasis of human tumor cells by blocking angiogenesis” (Korea Greencross Corp., priority 1999, dated 2007)", "key": {"VEGF8-109": {"target": "T1, VEGF8-109 (Homo sapiens, UniProt P15692)", "T1 construct": "made in house; host or cells: E. coli BL21(DE3)pLysS, inclusion bodies", "T1 sequence (P15692 214-315)": "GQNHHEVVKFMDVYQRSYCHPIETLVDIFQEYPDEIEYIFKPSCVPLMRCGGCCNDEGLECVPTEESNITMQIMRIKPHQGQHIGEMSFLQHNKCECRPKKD", "test": "Inhibition of labeled VEGF8-109 binding to its receptors", "settings": "FIG. 9", "source_text": "(§1) In order to verify this postulation, Sequence 1 (RRKRRR) was examined for the common binding domain on VEGF because it inhibited the binding of VEGF to its receptors at the highest efficiency. First, appropriate primers were synthesized and used to amplify various cDNAs coding for VEGF165, VEGF121, VEFG8-121, VEGF109, and VEGF8-109 while a human liver cDNA library (Clontech) served as a template. After being inserted to plasmid pRSET A (Invitrogen), the cDNAs were sequenced. The resulting five pRSET A vectors, each having one of the five cDNAs, were introduced into an expression strain (BL21(DE3)pLysS) containing T7 RNA polymerase. […] The purified VEGFs were quantified by use of a protein assay reagent (Bio-Rad) and all found to bind to VEGF receptors and exert growth hormone activity on HUVEC. […] For use, each labeled protein was quantified by ELISA (enzyme-linked immunosorbent assay) using a mouse monoclonal anti-VEGF antibody (R&D systems).\n(§2) Each peptide was examined for antagonistic activity against VEGF in the same manner as in Example 2. Referring to FIG. 9, the radioactivity measured from ^125I-labeled VEGF associated with fixed Sequence 1 (RRKRRR) (SEQ ID NO: 1) is plotted in the absence of competitors and in the presence of competitors for various VEGF isomers. […]"}, "VEGF": {"target": "T2, VEGF (Homo sapiens, UniProt P15692)", "T2 sequence (P15692 27-191 isoform P15692-4)": "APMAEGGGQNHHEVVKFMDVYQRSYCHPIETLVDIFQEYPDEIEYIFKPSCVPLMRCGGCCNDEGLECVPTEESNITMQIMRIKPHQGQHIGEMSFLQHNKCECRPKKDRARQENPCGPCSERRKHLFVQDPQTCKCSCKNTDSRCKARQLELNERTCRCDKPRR", "test": "125I-labeled VEGF association with peptides fixed on ELISA plate, competition", "assay_type": "binding", "settings": "determined from IC50: KD=IC50−[non-labeled Competitor]; fixed peptide 100 ng/well; read-out: dissociation constant (KD) between VEGF and peptide", "experimental": "To verify the postulated mechanism in which the screened peptides might be associated directly with VEGF so as to inhibit VEGF from binding to its receptors present on the surface of vascular endothelial cells, the following experiments were conducted. Each of the hexa-peptides was fixed on a 96-well ELISA plate at a concentration of 100 ng/well in such a manner that a 20% acetic acid solution containing each peptide was dried in air. The plate was treated three times with a phosphate buffered saline containing 0.1% albumin for 3 min each time. A solution of ^125I-labeled VEGF in the same phosphate buffered saline was added to the plate at a concentration of 0.2 ng/well and incubated at 37° C. for 1 hour to associate the labeled VEGF with the peptides. To remove the […] remaining unassociated, the plate washed four times with the same phosphate buffered saline for 3 min per each time, followed by measuring radioactivity with the aid of a γ-counter. As for the non-specific binding, it was determined by incubation in the presence of either a mixture of the labeled VEGF and non-labeled VEGF or a mixture of the fixed peptide and unfixed peptide in a molar ratio of 1:100. This was set as a negative control.\nWith reference to FIG. 7, radioactivity measured from ^125I-labeled VEGF associated with fixed peptides is plotted versus molar ratios of a competitor, such as non-labeled VEGF or free peptides, to its counterpart. […] The dissociation constant (KD) between VEGF and each peptide was determined using the IC50) value according to the following formula (De Blasi, A. et al., Trends Pharmacol. Sci., 10, 227 (1989)). KD=IC50−[non-labeled Competitor]"}, "VEGF109": {"target": "T3, VEGF109 (Homo sapiens, UniProt P15692)", "T3 construct": "made in house; host or cells: E. coli BL21(DE3)pLysS, inclusion bodies", "T3 sequence (P15692 27-135 isoform P15692-4)": "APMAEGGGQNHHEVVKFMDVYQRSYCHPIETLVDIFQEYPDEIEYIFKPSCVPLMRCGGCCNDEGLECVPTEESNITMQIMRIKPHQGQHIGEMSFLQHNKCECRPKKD", "test": "Inhibition of labeled VEGF109 binding to its receptors", "settings": "FIG. 9", "source_text": "as §1, §2"}, "[1]": {"tested_on": "HM7 (human colon carcinoma cell line)", "test": "Liver metastasis of HM7 cells transplanted into the spleen of nude mice", "assay_type": "in vivo", "settings": "control group PBS only", "source_text": "In order to conduct an experiment concerning the metastasis of cancer cells to the liver, cancerous cells were transplanted into the spleen. In this regard, after being anesthetized with diethyl ether, 4-week-old male mice (athymic nude mice, BALB/c/nu/nu, Charles River, Japan) underwent flank incision. […] Four weeks after the injection, the liver was excised from each mouse and measured for weight and the size and number of metastatic nodules formed. Each test group was composed of 6-7 mice. In a student's t-test, a p value less than 0.05 was regarded as being statistically significant. In the test using tetrazolium dye (cell titer 96 Non-radioactive Proliferation Assay Kit, Promega), each peptide was evaluated to have no influence on the growth of the cancer cells (5×10^3 cells/well), so that the possibility that the toxicity of the peptide themselves might inhibit the growth and metastasis of cancer cells could be excluded."}, "[2]": {"tested_on": "HT1080 (human fibrosarcoma)", "test": "Egg CAM assay, angiogenesis induced by VEGF-secreting cancer cells", "assay_type": "in vivo", "settings": "for effect on angiogenesis induced by VEGF secreted from human cancer cells: FIG. 12; for Angiogenic activity eggs/total eggs / Angiogenic activity(%): egg CAM, 10^5 HT1080 cells/egg with 0.1 μg peptide; for Angiogenic activity(%): (standard deviation)", "experimental": "An experiment using egg CAM was carried out to confirm the inhibitory activity of the screened peptides against the angiogenesis induced by cancer cells, which secrete VEGF. Fertilized eggs were deprived of albumin and windows were formed on the eggs as in above. 10^5 cells of HT1080 (human fibrosarcoma) were mixed with 7.5 μg of Type I collagen (rat tail, Beckton Dickinson, USA) within a volume of 5 μl and dropped onto ¼ fraction pieces of Thermanox coverslips to give collagen sponges. After being covered with the collagen sponges, 10-day embryonic egg CAM was incubated at 37° C. for 3 days. Blood vessels induced by the cancer cells were observed and photographed as in above (see Table 6 and FIG. 12)."}}, "note": "pKd: −log10 of the molar value.", "data": [{"compound": "H-RRKRRR-NH2 [compound 8, NH2-Arg-Arg-Lys-Arg-Arg-Arg-CONH2]", "values": [{"measurement": "inhibition of binding of VEGF8-109 to its receptors", "setting": "VEGF8-109", "value": "not inhibited"}, {"measurement": "pKd", "setting": "VEGF", "value": 5.30}, {"measurement": "inhibition of binding of VEGF109 to its receptors", "setting": "VEGF109", "value": "not inhibited"}, {"measurement": "weight of the liver, % of the control group", "setting": "[1]", "value": 33, "unit": "%"}, {"measurement": "number of metastatic nodules, % of the control group", "setting": "[1]; liver", "value": 16, "unit": "%"}, {"measurement": "effect on angiogenesis induced by VEGF secreted from human cancer cells", "setting": "[2]", "value": "inhibitory effect"}, {"measurement": "Angiogenic activity eggs/total eggs", "setting": "[2]", "value": "8/22"}, {"measurement": "Angiogenic activity(%)", "setting": "[2]", "value": "36.0(8.5) %"}]}, {"compound": "H-RKKRKR-NH2 [compound 1, NH2-Arg-Lys-Lys-Arg-Lys-Arg-CONH2]", "values": [{"measurement": "pKd", "setting": "VEGF", "value": 5.70}, {"measurement": "effect on angiogenesis induced by VEGF secreted from human cancer cells", "setting": "[2]", "value": "inhibitory effect"}, {"measurement": "Angiogenic activity eggs/total eggs", "setting": "[2]", "value": "10/23"}, {"measurement": "Angiogenic activity(%)", "setting": "[2]", "value": "43.0(9.9) %"}]}, {"compound": "N=C(N)NCCC[C@H](NC(=O)[C@H](CCCNC(=N)N)NC(=O)[C@H](CCCNC(=N)N)NC(=O)[C@H](CCCNC(=N)N)NC(=O)[C@H](CCCNC(=N)N)NC(=O)[C@@H](N)CCCNC(=N)N)C(N)=O", "note": "[compound 11, NH2-Arg-Arg-Arg-Arg-Arg-Arg-CONH2]", "values": [{"measurement": "pKd", "setting": "VEGF", "value": 4.66}, {"measurement": "effect on angiogenesis induced by VEGF secreted from human cancer cells", "setting": "[2]", "value": "inhibitory effect"}, {"measurement": "Angiogenic activity eggs/total eggs", "setting": "[2]", "value": "10/24"}, {"measurement": "Angiogenic activity(%)", "setting": "[2]", "value": "41.0(7.1) %"}]}]}
